Results taken from US20240293367A1, “METHODS OF TREATING DISORDERS WITH A […]” (Cybin IRL Limited, priority 2023, published 2024).
Several values for one entry are separate records, joined by “and”; a condition that tells them apart may be missing. Identical values can stand only once.

Tests used:
[1] = Safety and tolerability (adverse events) in the Phase I/IIa study
[2] = 28-day (4-week GLP) toxicology study in dogs, toxicokinetic exposure; details: both sexes, dog, in vivo, toxicokinetic data, 28-day toxicology study in dogs, combined male and female
Text: The exposure limits will be applied on mean values within a cohort.

[3] = VAS ratings of 'Any drug effect' in the Phase I/IIa study; format: in vivo, human
Text: The visual analogue scale (VAS) is a psychometric response scale that can be used in questionnaires. It is a measurement instrument for subjective characteristics or attitudes that cannot be directly measured. When responding to a VAS item, respondents specify their level of agreement to a statement by indicating a position along a continuous line between two end points, usually a horizontal 100-mm line marked from “not at all,” “definitely not,” or the like, on the left to “extremely,” “definitely so,” or the like, on the right. The Bond and Lader VAS involves the subject indicating (with vertical marks) on sixteen horizontal 100-mm visual analogue scales how he/she feels. From these measurements, three main factors are calculated as described by Bond and Lader: alertness (from nine scores), contentedness (often called mood; from five scores), and calmness (from two scores). The Bowdle VAS and Drug Rating VAS provides the subject with items of the drug rating questionnaire: feel drug, like drug, and dislike drug. The VAS any drug effect involves the subject indicating (with vertical marks) on horizontal 100-mm visual analogue scales with the any drug effects item (“I can feel any drug effect”). In some embodiments, the subject has a maximum VAS score (e.g., Bond and Lader VAS, Bowdle VAS and Drug Rating VAS, and/or VAS any drug effect) of ≥60 mm after treatment. In some embodiments, the subject has a VAS score (e.g., Bond and Lader VAS, Bowdle VAS and Drug Rating VAS, and/or VAS any drug effect) of greater than or equal to 60 mm, 65 mm, 70 mm, 75 mm, 80 mm, 85 mm, 90 mm, or 95 mm, after treatment. In some embodiments, at least 50%, at least 55%, at least 60%, at least 65%, at least 70%, at least 75%, at least 80%, at least 85%, at least 90% of subjects treated with the methods described herein report a maximum VAS score (e.g., Bond and Lader VAS, Bowdle VAS and Drug Rating VAS, and/or VAS any drug effect) of greater than or equal to 60 mm, 65 mm, 70 mm, 75 mm, 80 mm, 85 mm, 90 mm, or 95 mm following treatment. In some embodiments, the subject has a maximum VAS any drug effect score of ≥60 mm after treatment. In some embodiments, the subject has a VAS any drug effect score of greater than or equal to 60 mm, 65 mm, 70 mm, 75 mm, 80 mm, 85 mm, 90 mm, or 95 mm, after treatment. In some embodiments, at least 50%, at least 55%, at least 60%, at least 65%, at least 70%, at least 75%, at least 80% of subjects treated with the methods described herein report a maximum VAS any drug effect score of greater than or equal to 60 mm, 65 mm, 70 mm, 75 mm, 80 mm, 85 mm, 90 mm, or 95 mm following treatment.
A visual analogue scale will be completed by all participants on each day of dosing (Day 1 and Day 8 or Day 22) and will consist of a 100 mm bipolar line with the far left side of the line marked not at all, and the far right side of the line marked extremely. Participants will be asked “Right now, do you feel any drug effects at all?” and participants in response will make a vertical mark on the line on study dosing days predose and at 0.5, 1, 2, 4, 6, 8 and 12 hours postdose.

[4] = all cohorts, psilocin-d10 n = 35
[5] = oral, equivalent doses, male Beagle dogs

Compound: [2H]C([2H])([2H])N(C([2H])([2H])[2H])C([2H])([2H])C([2H])([2H])c1c[nH]c2cccc(O)c12 [psilocin-d10, 3-(2-(bis(methyl-d3)amino)ethyl-1,1,2,2-d4)-1H-indol-4-ol]
- nausea at least possibly related to study treatment ([1]; 8 mg): 2 out of 4
- nausea at least possibly related to study treatment ([1]; 12 mg): 6 out of 24
- nausea at least possibly related to study treatment ([1]; 16 mg): 3 out of 12
- headache at least possibly related to study treatment ([1]; Cohort 3): 1 subject
- headache at least possibly related to study treatment ([1]; Cohort 4): 1 subject
- vomiting at least possibly related to study treatment ([1]; Cohort 4): 1 subject
- vomiting at least possibly related to study treatment ([1]; Cohort 6): 3 subjects
- discontinuation due to AEs ([1]; all cohorts): No participants discontinued due to AEs
- Drug-related, treatment-emergent adverse events: At least one AE ([1]; all cohorts incl. healthy volunteers, psilocin-d10 n = 35): 21 (60.0) n (%)
- Drug-related TEAE: Affect lability [1, 4]: 1 (2.9) n (%)
- Drug-related TEAE: Anxiety [1, 4]: 2 (5.7) n (%)
- Drug-related TEAE: Blood pressure increased [1, 4]: 5 (14.3) n (%)
- Drug-related TEAE: Confusional state [1, 4]: 1 (2.9) n (%)
- Drug-related TEAE: Dizziness [1, 4]: 1 (2.9) n (%)
- Drug-related TEAE: Eructation [1, 4]: 1 (2.9) n (%)
- Drug-related TEAE: Headache [1, 4]: 3 (8.6) n (%)
- Drug-related TEAE: Nasal congestion [1, 4]: 1 (2.9) n (%)
- Drug-related TEAE: Nausea [1, 4]: 6 (17.1) n (%)
- Drug-related TEAE: Panic Attack [1, 4]: 1 (2.9) n (%)
- Drug-related TEAE: Tachycardia [1, 4]: 1 (2.9) n (%)
- Drug-related TEAE: Vomiting [1, 4]: 2 (5.7) n (%)
- tolerability ([1]; dosage levels up to 16 mg, 8 healthy volunteers and 38 participants with MDD): well tolerated without significant adverse effects
- AUC(0-t) ([2]; read-out: predefined maximum exposure level, AUC0-24): 123 ng·h/mL
- Cmax ([2]; read-out: predefined maximum exposure level, Cmax): 63 ng/mL
- subjects reporting maximum VAS-Any drug effect readings above 60 mm ([3]; 8 mg oral, Cohort 2, 4 healthy volunteers): 75%
- Observed Mean Maximum VAS - Any drug effect ([3]; 8 mg oral, Cohort 2 Day 8, NHV, N = 4): 77.2
- individual VAS-Any drug effect scores of subjects with meaningful scores ([3]; 8 mg, Cohort 2): 100 mm and 97 mm and 89 mm
- subjects reporting maximum VAS-Any drug effect readings above 60 mm ([3]; 10 mg oral, Cohort 3, 3 healthy volunteers): 66%
- Observed Mean Maximum VAS - Any drug effect ([3]; 10 mg oral, Cohort 3 Day 8, NHV, N = 3): 78.3
- individual VAS-Any drug effect scores of subjects with meaningful scores ([3]; 10 mg, Cohort 3): 100 mm
- Observed Mean Maximum VAS - Any drug effect ([3]; 12 mg oral, Cohorts 4 and 5 MDD, Day 1 or Day 22, blinded data incl. placebo subjects): 80.7 and 80.7^3
- median maximum VAS-Any drug effect score ([3]; 12 mg, Cohorts 4 and 5 MDD): 100 mm
- Observed Mean Maximum VAS - Any drug effect ([3]; 16 mg oral, Cohort 6 MDD, Day 1 or Day 22, blinded data incl. placebo subjects, excluding vomited doses): 89.2 and 89.2^2,3
- median maximum VAS-Any drug effect score ([3]; 16 mg, Cohort 6 MDD): 100 mm
- subjects reporting maximum VAS-Any drug effect readings above 60 mm ([3]; 16 mg, Cohort 6 MDD): 79.2%
- difference in systemic exposure versus psilocin (dogs): ~30%
- higher concentration (Cmax) compared to psilocin after psilocybin [5]: 31%
- higher exposure (AUC) compared to psilocin after psilocybin [5]: 38%
- oral availability (oral, female dogs): 91.3%
